This is an account of results in article PMC7170889, “Synthesis and evaluation of designed PKC modulators for enhanced cancer immunotherapy” (Nature Communications, 2020).

The subject of assay [1] is CD22 surface expression in NALM6 cells. Put plainly: CD22 surface expression in NALM6 cells (flow cytometry). The class given is cell-based, human. To be noted: NALM6 cells at 1 nM relative to DMSO control, 24 h incubation, washout, 24 h sub-culture, n = 3; for fold induction at 0.001 µM: Homo sapiens, NALM-6, 24 h, read-out: Fold increase CD22 expression. As for the experimental part:
CD22 Surface Expression Protocol – NALM6 Cells […]
unless otherwise noted below) at 37 ° C in an incubator (5% CO2). Cell cultures were maintained […]
Cell suspension from a confluent T75 flask (Fisher) was transferred to a 15 mL falcon tube and centrifuged at 1100 rpm for 7 minutes. The supernatant was aspirated, and the cell pellet was […]
Cells were counted using a Countess II Automated Cell
199 µL of this stock was added to 24 wells (enough for triplicate measurements for 8 different experimental conditions) in a 96-well plate. Dosing was […]
each experiment. 1 µL of DMSO or the appropriate stock solution of compound in DMSO was added to each well. Cells were incubated for 24 hours, at which point the cell suspensions were transferred to 1.5 mL Eppendorf tubes and diluted with 1.0 mL of PBS (Hyclone, without Ca2+ or Mg2+). Samples were centrifuged at 2000 rpm for 5 min at RT. The supernatant was aspirated, […]
Cells were sub-cultured between 2 […]
surface expression was assayed by flow cytometry.
Cells from one well were counted using a Countess II Automated Cell Counter (Fisher). ~200,000 – 300,000 cells from each well were added to 1.5 mL Eppendorf tubes containing PBS (final volume ~1.2 mL). The cell suspensions were centrifuged at 1500 rpm for 7 minutes at 4 °C. The supernatant was aspirated, and the cell pellet was resuspended in 99 µL of pre-chilled FACS […]
buffer (0.5% w/v BSA in PBS). […]
minutes. Samples were then diluted with an additional 1.0 mL of FACS buffer and centrifuged at 1500 rpm for 7 minutes at 4 °C. The supernatant was aspirated, the cell pellets were resuspended in 200 µL FACS buffer, and the resulting suspensions were transferred to FACS tubes (Fisher, […]
Cells were stained with DAPI and CD22 surface expression was analyzed using the FACScan Analyzer at the Stanford Shared FACS Facility. Data analysis was performed using FlowJo and Microsoft Excel.
(A flow cytometer gives signals particle by particle.)

A further assay has as its system PKC. The experiment in a line: PKC competitive binding assay, isoform not specified. Set-up: species or system human. The settings on record: conventional and novel PKC isoforms. As for the experimental part: (§1) With a panel of compounds bearing diverse functionality at C13, we began to explore how these modifications affect PKC binding and biological function. Because an obvious prerequisite for PKC pathway involvement is binding to PKC, compounds were initially evaluated for PKC affinity in a cell-free competitive binding assay with tritiated phorbol dibutyrate ([^3H]-PDBu). Assays were performed with representative members of both the conventional (PKCα) and novel (PKCδ) PKC families. Subsequently, compounds were assayed for PKC isoform translocation in real time in living cells using an optical assay. Translocation to the plasma membrane is the hallmark of PKC activation[18],[57],[60] and therefore monitoring the subcellular localization of a PKCδ-GFP fusion protein via confocal microscopy offers a convenient method for determining whether a compound enters a cell and engages its PKC isoform target. Finally and of clinical significance, we also determined the effect of compounds on CD22 surface expression in vitro in NALM6 cells, an ALL cell line previously studied in connection with CD22-targeted CAR T cell therapy, and two additional lymphoma cell lines[11],[31],[65].
(§2) PKC Binding Assay Protocol […]
(§3) competition with 3H-phorbol-12,13-dibutyrate (3H-PDBu) as described below. This procedure entails a glass-fiber filtration method to determine bound radioligand.
(§4) Preparation of PKC binding assay buffer
(§5) To a 50 mL polypropylene tube was added Tris-HCl (pH 7.4, 1 M, 1 mL), KCl (1 M, 2 mL), CaCl2 (0.1 M, 30 μL), and bovine serum albumin (BSA, 40 mg, Sigma-Aldrich). This mixture was diluted to 20 mL with deionized H2O and mixed gently. The buffer was stored on ice until use. The final […]
(§6) Supplementary Table1. PKC binding assay buffer composition.
(§7) Preparation of phosphatidylserine (PS) vesicles
(§8) For every two assays, 3.5 mg phosphatidylserine (Avanti Polar Lipids, porcine, 25 mg/mL CHCl3 solution) was concentrated by removing chloroform under a stream of nitrogen followed by reduced pressure. The solid PS was suspended as vesicles in freshly prepared PKC binding assay buffer (3.5 mL) by sonicating six times for 30 sec, with a 30 sec rest between sonications (Branson Sonifier 250, power = 2, 50% duty cycle). The resulting milky cloudy mixture (1 mg/mL) was stored […]
(§9) Preparation of PKC isoform solution
Assay PKC was prepared by dissolving a 4 μg aliquot of the indicated recombinant human PKC isoform (Invitrogen) into 11.6 mL of PKC binding assay buffer (this amount is sufficient for two assays). The diluted PKC was stored on ice for immediate use.
Preparation of 3H-PDBu solution
3H-PDBu (American Radiolabeled Chemicals, Inc.; 1 mCi/mL acetone solution; specific activity: […]) was diluted 10-fold with DMSO. The resulting 500 nM stock solution was further diluted with DMSO to 30 nM.
(§10) Preparation of analog compound dilutions
(§11) Compound dilutions were prepared by serially diluting from a chosen "high" concentration by factors of 3 or 4. For each analog compound, seven concentrations were used to define the […]
(§12) To a polypropylene tube was added 3.3 mL of 1 mg/mL PS vesicles solution, 11 mL of PKC isoform solution, and 1.1 mL of 30 nM 3H-PDBu solution were added. The resulting solution was vortexed to mix and stored on ice.
(§13) PKC binding assay protocol
- Glass-fiber filters (Whatman GF/B) were prepared by soaking them in a solution of […]

The next assay has as its target T1, PKCδ (Homo sapiens, UniProt Q05655).
T1 construct: purchased Invitrogen
Put plainly: PKC competitive binding assay with [3H]-phorbol dibutyrate (PKCδ). The settings on record: cell-free, competition with [3H]-PDBu, PS vesicles. As to the method: as §1, §2, §3, §4, §5, §6, §7, §8, §9
Assay PKC was prepared by dissolving a 4 μg aliquot of the indicated recombinant human PKC isoform (Invitrogen) into 11.6 mL of PKC binding assay buffer (this amount is sufficient for two assays). The diluted PKC was stored on ice for immediate use. […]
μCi/mmol) was diluted 10-fold with DMSO. The resulting 500 nM stock solution was further diluted with DMSO to 30 nM.
as §10, §11, §12, §13
- Glass-fiber filters (Whatman GF/B) were prepared by soaking them in a solution of aqueous polyethyleneimine (10% by vol, 18 mL) in deionized water (600 mL) for ≥1h.
- 500 mL "rinsing buffer" of 20 mM Tris, pH 7.4 was cooled on ice for the duration of the incubation period and for the remainder of the assay.
Triplicate data points were obtained for each analog concentration. For each data point, 280 μL of "Master Mix" Solution and 20 μL of analog compound at a specified concentration were added to a polypropylene tube. Non-specific 3H-PDBu binding was assessed in triplicate by substitution […]
μM). Maximal 3H-PDBu binding was assessed in triplicate by substitution of the analog compound with 20 μL DMSO. The solutions were vortexed to mix, incubated at 37 °C for 10 min, and […]

T1 sequence (Q05655 whole entry): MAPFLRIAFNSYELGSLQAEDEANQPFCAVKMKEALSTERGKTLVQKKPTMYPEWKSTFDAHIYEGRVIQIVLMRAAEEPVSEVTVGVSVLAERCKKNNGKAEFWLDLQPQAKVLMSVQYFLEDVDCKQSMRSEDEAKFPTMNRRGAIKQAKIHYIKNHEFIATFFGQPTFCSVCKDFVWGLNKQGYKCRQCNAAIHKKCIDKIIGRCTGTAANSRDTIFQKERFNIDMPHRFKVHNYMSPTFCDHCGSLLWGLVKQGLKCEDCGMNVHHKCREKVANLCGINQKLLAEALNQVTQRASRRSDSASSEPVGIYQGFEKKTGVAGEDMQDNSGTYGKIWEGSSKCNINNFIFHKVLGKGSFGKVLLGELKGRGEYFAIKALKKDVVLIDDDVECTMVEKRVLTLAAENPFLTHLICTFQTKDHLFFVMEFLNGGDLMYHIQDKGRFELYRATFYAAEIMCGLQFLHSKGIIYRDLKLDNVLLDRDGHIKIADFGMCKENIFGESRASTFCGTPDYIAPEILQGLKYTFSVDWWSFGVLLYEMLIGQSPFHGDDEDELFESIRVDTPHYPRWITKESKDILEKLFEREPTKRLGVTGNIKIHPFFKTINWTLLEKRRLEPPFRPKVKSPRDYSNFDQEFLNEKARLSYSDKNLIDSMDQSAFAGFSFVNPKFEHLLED

Regarding `CCCCCC#CC(=O)O[C@H]1/C(=C/C(=O)OC)C[C@H]2C[C@H]([C@@H](C)O)OC(=O)C[C@H](O)C[C@@H]3C[C@H](OC(C)=O)C(C)(C)[C@](O)(C[C@@H]4C[C@H](O)C[C@H](/C=C/C(C)(C)[C@]1(O)O2)O4)O3` [SUW204], the fold induction at 0.001 µM in assay [1] turned out to be 0.98. The “PKC binding affinity in words” value with PKC is “single-digit nanomolar”. Besides, on PKCδ, the Ki was found to be 3.7 nM.
Consider `CCCC=CC=CC(=O)OC1C(=CC(=O)OC)CC2CC(C(C)O)OC(=O)CC(O)CC3CC(OC(C)=O)C(C)(C)C(O)(CC4CC(OC(=O)Nc5ccccc5)CC(C=CC(C)(C)C1(O)O2)O4)O3` (stereo not drawn) [SUW208], for which the fold induction at 0.001 µM in assay [1] amounted to 1.68. The inhibitory constant (Ki) on PKCδ was 4.7 nM.
`CCCC=CC=CC(=O)OC1C(=CC(=O)OC)CC2CC(C(C)O)OC(=O)CC(O)CC3CC(OC(C)=O)C(C)(C)C(O)(CC4CC(=CC(=O)OCC)CC(C=CC(C)(C)C1(O)O2)O4)O3` (stereo not drawn) [SUW218]: the “Fold increase CD22 expression” value in assay [1] is 1.92 fold. The Ki on PKCδ came out at 6.6 nM.
Consider `CCCC=CC=CC(=O)OC1C(=CC(=O)OC)CC2CC(C(C)O)OC(=O)CC(O)CC3CC(OC(C)=O)C(C)(C)C(O)(CC4CC(OC(=O)CCc5c[nH]c6ccccc56)CC(C=CC(C)(C)C1(O)O2)O4)O3` (stereo not drawn) [SUW210], for which the fold induction at 0.001 µM in assay [1] is 1.49. Further, affinity on PKCδ was put at a Ki of 7.3 nM.
Take `CCCC=CC=CC(=O)OC1C(=CC(=O)OC)CC2CC(C(C)O)OC(=O)CC(O)CC3CC(OC(C)=O)C(C)(C)C(O)(CC4CC(=CC(=O)OCC)CC(C=CC(C)(C)C1(O)O2)O4)O3` (stereo not drawn) [SUW217]: the fold induction at 0.001 µM in assay [1] was determined as 1.97. On PKCδ, this molecule had an inhibition constant (Ki) of 9.4 nM.
The corresponding values for `CCCC=CC=CC(=O)OC1C(=CC(=O)OC)CC2CC(C(C)O)OC(=O)CC(O)CC3CC(OC(C)=O)C(C)(C)C(O)(CC4CC(OC(=O)CC56CC7CC(CC(C7)C5)C6)CC(C=CC(C)(C)C1(O)O2)O4)O3` (stereo not drawn) [SUW209] are 1.45 and 3.5 nM.
For the molecule `CCC/C=C/C=C/C(=O)O[C@H]1/C(=C/C(=O)OC)C[C@H]2C[C@H]([C@@H](C)O)OC(=O)C[C@H](O)C[C@@H]3C[C@H](OC(C)=O)C(C)(C)[C@](O)(C[C@@H]4C[C@@H](OC(C)=O)C[C@H](/C=C/C(C)(C)[C@]1(O)O2)O4)O3` [SUW207], in assay [1], the “Fold increase CD22 expression” value is 1.33 fold. The molecule further gave a Ki on PKCδ of 5.4 nM.

One may read the Ki as a measure of affinity in units of concentration, obtained from inhibition or displacement. A lower Ki goes with a stronger hold on the target.
